Here are results for 22 molecules from ChEMBL document CHEMBL1201862, “PubChem BioAssay data set” (2004).

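Values below derive from 48-hour exposures of cells grown in 96-well plates, with endpoints linearly interpolated between the two concentrations bracketing the appropriate inhibition level. Here, GI50 denotes the concentration required for 50% inhibition of growth.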 Calls of active or inactive are those of the source. Rule as the data show it: active = GI50 up to about 1.1 µM and inactive = higher. Bounds are passed on as bounds.

Test systems include M19-MEL; XF498; KM-20L2; LXFL 529; SNB-78; RXF 631; MDA-N; Hs-578T; BT-549.
What all share (experiment): DTP human tumour cell line panel, 48 h

Consider `COc1ccc(/C=C/C(C(=O)O)C(=O)O)cc1`, for which the GI50 with M19-MEL is 61.8 µM (inactive); with XF498, > 100 µM (inactive); in the assay on KM-20L2 it was 91.6 µM (inactive); with LXFL 529 it was 36.4 µM (inactive); with SNB-78, 48.1 µM (inactive).

On to `N#Cc1ccc(Nc2cnc3ccc(N)cc3n2)cc1`, for which the GI50 with M19-MEL, with XF498, in the assay on KM-20L2, in the assay with LXFL 529 and with SNB-78 was > 100 µM (inactive) each time.

Take `Cc1c(C(=O)C/C(=N/NC(=O)C[n+]2ccccc2)C(=O)Nc2ccccc2)[n+]([O-])c2ccccc2[n+]1[O-]`: the GI50 in the assay on M19-MEL, with XF498, with KM-20L2, with LXFL 529, in the assay with SNB-78 and in the assay on RXF 631 was > 100 µM (inactive) throughout.

For `COC(=O)C(=O)C(C(=O)C(=O)Nc1ccc([N+](=O)[O-])cc1)c1nc2ccccc2nc1O` (centres undefined), the GI50 in the assay on M19-MEL is > 100 µM (inactive); in the assay with XF498, > 100 µM (inactive); with KM-20L2, 22.1 µM (inactive); with LXFL 529, 34.2 µM (inactive); in the assay with RXF 631, > 100 µM (inactive).

`Cc1cccc(C2=C/C(=C(\SS/C(C(=O)c3ccc(OCC(=O)O)c(Cl)c3Cl)=C3\C=C(c4cccc(C)c4)SS3)C(=O)c3ccc(OCC(=O)O)c(Cl)c3Cl)SS2)c1`: the GI50 in the assay with M19-MEL is 19.1 µM (inactive); in the assay with XF498, 7.98 µM (inactive); with KM-20L2, 47.1 µM (inactive); in the assay with SNB-78 it was 15.6 µM (inactive).

Turning to `Cc1ccc(NC(=O)CC(=O)n2nc(-c3ccccc3)c(/N=N/c3ccc(Cl)cc3)c2-c2ccccc2)cc1`, the GI50 in the assay with M19-MEL was 22 µM (inactive); in the assay on KM-20L2 it was 49.9 µM (inactive); in the assay with LXFL 529 it was 64.7 µM (inactive); in the assay on SNB-78, > 100 µM (inactive); in the assay with RXF 631, > 100 µM (inactive).

As to `O=C(Nc1cccc(Cl)c1)c1cc2cc(/N=N/c3ccc(Br)cc3)ccc2oc1=O`, the GI50 was > 10 µM (inactive) with M19-MEL; 46.8 µM (inactive) with XF498; 45.1 µM (inactive) with KM-20L2; 14.1 µM (inactive) in the assay with LXFL 529; 52.8 µM (inactive) in the assay with SNB-78; 68.1 µM (inactive) with RXF 631.

As for `Cc1cc2c(=O)cc(-c3ccncc3)oc2c(C(=O)O)c1C`, the GI50 in the assay on M19-MEL, in the assay on XF498, with KM-20L2, in the assay with LXFL 529, with SNB-78 and with RXF 631 was > 100 µM (inactive) each time.

Turning to `CCC(CO)COC(=O)/C=C/C(=O)OCC(CC)CO` (centres undefined), the GI50 in the assay on M19-MEL is > 100 µM (inactive); in the assay on XF498, > 100 µM (inactive); in the assay on KM-20L2, > 100 µM (inactive); in the assay with LXFL 529, 78.7 µM (inactive); with SNB-78 it was > 100 µM (inactive); in the assay with RXF 631, > 100 µM (inactive).

In the case of `CN1CCN(CCn2c3c4ccccc4ccc3c3oc(=O)c4ccccc4c32)CC1`, the GI50 is 10.8 µM (inactive) with M19-MEL; 2.58 µM (inactive) in the assay with KM-20L2; 1.56 µM (inactive) in the assay on MDA-N; 4.79 µM (inactive) in the assay on Hs-578T; 4.06 µM (inactive) in the assay on LXFL 529; 11.4 µM (inactive) with SNB-78. Further, the GI50 in the assay on RXF 631 was 5.19 µM (inactive).

Regarding `C=C1C(=O)OC2C(C)C3C=CC(=O)[C@@]3(C)C(OC(=O)/C(C)=C/C)C1[C@@H]2OC(C)=O` (some centres undefined), the GI50 with M19-MEL was 0.547 µM (active); with XF498, 1.25 µM (inactive); in the assay with KM-20L2 it was 1.51 µM (inactive); with MDA-N, 0.252 µM (active); in the assay with Hs-578T it was 0.308 µM (active); in the assay with LXFL 529 it was 0.359 µM (active). In addition, the GI50 in the assay with SNB-78 was 0.396 µM (active); in the assay with BT-549, 0.28 µM (active).

`O=C(Nc1cccc(O)c1)C(=O)C(C(=O)c1ccc(Cl)c(Cl)c1)C1OC(=O)c2ccccc21` (centres undefined): the GI50 in the assay on M19-MEL was 12.4 µM (inactive); in the assay on XF498 it was 10.9 µM (inactive); in the assay with KM-20L2, 18.8 µM (inactive); in the assay on LXFL 529, 12.2 µM (inactive); in the assay on SNB-78 it was 7.08 µM (inactive).

As for `Cn1cnc([N+](=O)[O-])c1Sc1nnnn1-c1ccccc1`, the GI50 is 12.1 µM (inactive) in the assay with M19-MEL; 11.6 µM (inactive) with XF498; 4.27 µM (inactive) in the assay on LXFL 529; 13.7 µM (inactive) with SNB-78; 14.2 µM (inactive) in the assay with RXF 631.

For `CCOC(=O)/C(=C/c1ccccc1Br)P(=O)(OCC)OCC`, the GI50 with M19-MEL is 1.55 µM (inactive); with XF498 it was 1.93 µM (inactive); with KM-20L2, 2.25 µM (inactive); in the assay with LXFL 529 it was 1.29 µM (inactive); with RXF 631, 2.5 µM (inactive).

For `CC(=O)O[C@@H]1CC[C@@]2(C)C(=O)C34C[C@@]5(C)C([C@@H](C)CCCC(C)C)CCC5(C)[C@](O)(O3)C(=O)[C@H]4C2C1(C)C` (some centres undefined), the GI50 in the assay with M19-MEL is 13.8 µM (inactive); with KM-20L2 it was 17.4 µM (inactive); with LXFL 529 it was 16.7 µM (inactive); in the assay on SNB-78 it was 20.8 µM (inactive); in the assay on RXF 631, 12.6 µM (inactive).

Regarding `Cn1c(=O)c2c3ccccc3c(C(=O)c3ccccc3)n2c2ccccc21`, the GI50 is 3.68 µM (inactive) in the assay on M19-MEL; > 50.9 µM (inactive) with XF498; 3.8 µM (inactive) in the assay with KM-20L2; > 24.5 µM (inactive) in the assay with LXFL 529; 63.2 µM (inactive) in the assay on SNB-78.

`Cc1ccc(S(=O)(=O)OC(C=O)C(O)C(O)COC(c2ccccc2)(c2ccccc2)c2ccccc2)cc1` (centres undefined): the GI50 with M19-MEL was 13.1 µM (inactive); in the assay with XF498 it was 15.8 µM (inactive); in the assay on KM-20L2, 14.1 µM (inactive); with LXFL 529 it was 12.8 µM (inactive); in the assay on RXF 631, 0.46 µM (active).

Turning to `COc1c(OC2OC(CO)C(O)C(O)C2O)cc2c(c1OC)-c1ccc(OC)c(=O)cc1C(NC(C)=O)CC2` (centres undefined), the GI50 was > 91.2 µM (inactive) in the assay with M19-MEL; 83.6 µM (inactive) with XF498; > 100 µM (inactive) in the assay on KM-20L2; 86.1 µM (inactive) in the assay with LXFL 529; > 100 µM (inactive) in the assay on SNB-78; > 100 µM (inactive) in the assay on RXF 631.

`COc1c(OC)c(N)c2cc(C)c(=O)c(C)cc2c1N`: the GI50 in the assay with M19-MEL is > 100 µM (inactive); in the assay with XF498 it was > 100 µM (inactive); in the assay on KM-20L2, > 100 µM (inactive); in the assay with LXFL 529 it was 64.9 µM (inactive); with SNB-78, > 100 µM (inactive).

In the case of `NNC(=O)N/N=C1\CNC(=O)C(=O)C1c1nc2ccccc2s1` (centres undefined), the GI50 in the assay with M19-MEL, with XF498, in the assay on KM-20L2, in the assay on LXFL 529 and in the assay with SNB-78 was > 100 µM (inactive) in each case.

As to `COc1nc(OC)nc(Sc2ccc(Sc3ccc(Sc4nc(OC)nc(OC)n4)cc3)cc2)n1`, the GI50 with M19-MEL, in the assay on XF498, in the assay with KM-20L2, in the assay with LXFL 529 and in the assay on SNB-78 was > 100 µM (inactive) throughout.

Turning to `OC1CN(OC/C=C/c2ccccc2)CC(O)C1O` (centres undefined), the GI50 with M19-MEL was > 100 µM (inactive); with XF498, > 100 µM (inactive); in the assay with KM-20L2, > 100 µM (inactive); with LXFL 529, 60.1 µM (inactive); in the assay on SNB-78, > 100 µM (inactive).

The term GI50 denotes the concentration giving 50% growth inhibition.
